Assay results: patent publication US20220248732A1, “Saltiness-Perception Enhancing Compounds” (Frito-Lay North America, Inc., priority 2021, published 2022)

What was measured:
[1] = test system: panelists (saltiness intensity); assay: Descriptive analysis of saltiness intensity of aqueous salt solutions (sample sets 1 and 2), 15-point scale; type: in vivo, human; conditions: for saltiness enhancement in salt solutions: 1x dosage level, 3.52 g NaCl/L (20% NaCl reduction), Tukey HSD alpha 0.05
Source text: (§1) The terms “saltiness,” “saltiness intensity,” and “mean saltiness intensity” may refer to the saltiness intensity of a compound, a composition, and/or a food product determined by an individual tasting a sample of the compound, the composition, and/or the food product and rating its saltiness intensity using a designated scale, such as the 15-point saltiness scale described herein.
(§2) Next, the panelists conducted descriptive analysis to evaluate the saltiness intensity of the following four sample sets.
(1) 2 mL samples of aqueous salt solutions with a 20% reduction in NaCl (3.52 g NaCl/L H2O) and 40% reduction in NaCl (2.64 NaCl/L H2O), relative to 2 mL of a control sample having a simulated saltiness intensity of traditional potato chips (4.40 g NaCl/L H2O);
(2) 2 mL samples of pH 6.2-6.5 aqueous salt solutions at the 20% NaCl reduction level (3.52 g NaCl/L H2O) with the addition of individual ones of the identified saltiness-enhancing compounds, where the compound dosage was at the endogenous level of the analyzed unsalted potato chips (1×) and at three times the endogenous level of the potato chips (3×);
Panelist evaluation of sample set (1): Twelve panelists rated saltiness intensity using a 15-point scale, in duplicate. The saltiness references provided were 0 points (water), 2.5 points (0.2% NaCl), 5 points (0.35% NaCl), and 8.5 points (0.5% NaCl).
Panelist evaluation of sample set (2): Eight panelists rated saltiness intensity using a 15-point scale, in duplicate. The saltiness references provided were 0 points (water), 2.5 points (0.2% NaCl), 5 points (0.35% NaCl), and 8.5 points (0.5% NaCl). The sensory dosage concentrations of the saltiness-enhancing compounds of the samples of sample set (2) is shown below in Table 3.

[2] = test system: panelists (saltiness intensity); assay: Descriptive analysis of saltiness intensity of topically coated potato chip samples (sample sets 3 and 4), 15-point scale; type: in vivo, human; conditions: for salt-enhancing activity on potato chips: applied topically (as mixture) to 20% and 40% salt reduced potato chips at the 1x dosage
Source text: as §1, §2
(3) 1 g potato chip samples with 20% reduction in NaCl (12.3 g NaCl/kg) and 40% reductions in NaCl (9.2 g NaCl/kg), relative to traditional potato chips (15.4 g NaCl/kg); and
(4) 1 g potato chip samples at 20% and 40% salt reductions (relative to standard potato chips) with the addition of a mixture of the identified saltiness-enhancing compounds topically applied to potato chips at the endogenous level of the analyzed unsalted potato chips (1×).
Panelist evaluation of sample set (3): Twelve panelists rated saltiness intensity using a 15-point scale, in duplicate. The saltiness references provided were 0 points (water), 2.5 points (0.2% NaCl), 5 points (0.35% NaCl), and 8.5 points (0.5% NaCl).
Panelist evaluation of sample set (4): Nine panelists rated saltiness intensity using a 15-point scale, in duplicate. The saltiness references provided were 0 points (water), 2.5 points (0.2% NaCl), 5 points (0.35% NaCl), and 8.5 points (0.5% NaCl). […] Thus, application of one or more of the identified saltiness-perception enhancing compounds to a food product may enable a reduction of up to about 40 wt % of the amount of salt applied to a food product while eliminating or attenuating the concomitant reduction in saltiness that would otherwise occur.

Q: For `N[C@@H](Cc1c[nH]c2ccccc12)C(=O)O` [L-Trp, L-tryptophan], which “Mean Saltiness Intensity” value ([1]; 3.52 g NaCl + 31.66 mg L-Trp per L water (1x), pH 6.2-6.5, 15-point scale, eight panelists, Tukey group a (NaCl alone 5.1 b)) is on record?
A: 5.7 a

Q: What about the “Mean Saltiness Intensity” value ([1]; 3.52 g NaCl + 94.98 mg L-Trp per L water (3x), pH 6.2-6.5, 15-point scale, eight panelists, Tukey group a (NaCl alone 5.1 b)) of the same compound?
A: 5.8 a

Q: And the “salt-enhancing activity on potato chips” value [2]?
A: salt-enhancing activity

Q: What does the source list for `[Cl-].[Na+]` [NaCl, sodium chloride]?
A: Mean Saltiness Intensity ([1]; 2.64 g NaCl per L water, 40% reduced salt, 15-point scale, twelve panelists, Tukey group C): 4.4 C; Mean Saltiness Intensity ([1]; 3.52 g NaCl per L water alone, control of GAX sample set, 15-point scale, eight panelists, Tukey group b): 5.0 b; Mean Saltiness Intensity ([1]; 3.52 g NaCl per L water alone, control of KA sample set, 15-point scale, eight panelists, Tukey group b): 5.1 b; Mean Saltiness Intensity ([1]; 3.52 g NaCl per L water alone, control of L-Trp sample set, 15-point scale, eight panelists, Tukey group b): 5.1 b; Mean Saltiness Intensity ([1]; 3.52 g NaCl per L water, 20% reduced salt, 15-point scale, twelve panelists, Tukey group B): 5.4 B; Mean Saltiness Intensity ([1]; 4.40 g NaCl per L water (control), 15-point scale, twelve panelists, Tukey group A): 7.2 A; Mean Saltiness Intensity ([2]; 9.2 g/kg NaCl on potato chips alone, 40% salt reduction sample comparison, nine panelists, Tukey group c): 4.2 c; Mean Saltiness Intensity ([2]; 12.3 g NaCl per Kg potato chips alone, 20% salt reduction sample comparison, nine panelists, Tukey group b): 5.0 b; Mean Saltiness Intensity ([2]; 15.4 g NaCl (full salt) per Kg potato chips, 20% salt reduction sample comparison, nine panelists, Tukey group a): 6.2 a; Mean Saltiness Intensity ([2]; 15.4 g NaCl (full salt) per Kg potato chips, 40% salt reduction sample comparison, nine panelists, Tukey group a): 6.2 a; Mean Saltiness Intensity ([2]; topical coating 9.2 g NaCl per Kg potato chips, 40% reduced salt, 15-point scale, twelve panelists, Tukey group C): 4.2 C; Mean Saltiness Intensity ([2]; topical coating 12.3 g NaCl per Kg potato chips, 20% reduced salt, 15-point scale, twelve panelists, Tukey group B): 5.3 B; Mean Saltiness Intensity ([2]; topical coating 15.4 g NaCl per Kg potato chips (traditional), 15-point scale, twelve panelists, Tukey group A): 6.1 A

Q: For `O=C(CCc1ccc(O)c(O)c1)NCCCNCCCCNCCCNC(=O)CCc1ccc(O)c(O)c1` [KA, Kukoamine A], which “saltiness enhancement in salt solutions” value [1] is on record?
A: significant saltiness enhancement

Q: What about the “Mean Saltiness Intensity” value ([1]; 3.52 g NaCl + 1.57 mg KA per L water (1x), pH 6.2-6.5, 15-point scale, eight panelists, Tukey group a (NaCl alone 5.1 b)) of the same compound?
A: 5.9 a

Q: What about the “Mean Saltiness Intensity” value ([1]; 3.52 g NaCl + 4.70 mg KA per L water (3x), pH 6.2-6.5, 15-point scale, eight panelists, Tukey group ab (NaCl alone 5.1 b)) of the same compound?
A: 5.6 ab

Q: What about the “salt-enhancing activity on potato chips” value [2] of the same compound?
A: salt-enhancing activity

Q: Which “saltiness enhancement in salt solutions” value [1] does the source give for `O=C(O)c1cc(O[C@@H]2OC[C@@H](O)[C@H](O)[C@H]2O)ccc1O` [GAX, Gentisic acid 5-O-β-D xylopyranoside] here?
A: significant saltiness enhancement

Q: What about the “Mean Saltiness Intensity” value ([1]; 3.52 g NaCl + 0.44 mg GAX per L water (1x), pH 6.2-6.5, 15-point scale, eight panelists, Tukey group a (NaCl alone 5.0 b)) of the same compound?
A: 6.0 a

Q: And the “Mean Saltiness Intensity” value ([1]; 3.52 g NaCl + 1.32 mg GAX per L water (3x), pH 6.2-6.5, 15-point scale, eight panelists, Tukey group ab (NaCl alone 5.0 b))?
A: 5.4 ab

Q: What about the “salt-enhancing activity on potato chips” value [2] of the same compound?
A: salt-enhancing activity
